According to the supplement of paper PMC10307832:

Experiments:
Experiment in all cases: relative viability (nuclei count vs DMSO), 5 days (fraction); higher = more cells survive
[1] = compound: CC1=CC(=CC=C1)NC2=NC(=CS2)C3=CC=NC=C3 + COc1cc2c(Oc3ccc(NC(=O)C4(C(=O)Nc5ccc(F)cc5)CC4)cc3F)ccnc2cc1OCCCN1CCOCC1 [Foretinib] (partner 0.25 µM)
Method in brief: (§1)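 Lung cancer cell lines were seeded in 1536-well plates and dosed by pin tool the next day, with either a single drug or a fixed anchor-drug dose combined with five library-drug doses (not always all listed) spaced in √10 steps. Five days later, one step fixed the cells and stained their nuclei (final 0.05% Triton X-100, 1% formaldehyde, 1 ug/ml Hoechst), and nuclei were counted on 4× images. Relative viability is the nuclei count in treated wells divided by the count in vehicle wells, and each value is the median of duplicate plates.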

[2] = compound: CC1=CC(=CC=C1)NC2=NC(=CS2)C3=CC=NC=C3 + O=C(CCCCCCC(=O)Nc1ccccc1)NO [Vorinostat] (partner 1 µM)
Method in brief: as §1

Masitinib + Navitoclax = compound: Cc1ccc(NC(=O)c2ccc(CN3CCN(C)CC3)cc2)cc1Nc1nc(-c2cccnc2)cs1 [Masitinib] + CC1(C)CCC(c2ccc(Cl)cc2)=C(CN2CCN(c3ccc(C(=O)NS(=O)(=O)c4ccc(N[C@H](CCN5CCOCC5)CSc5ccccc5)c(S(=O)(=O)C(F)(F)F)c4)cc3)CC2)C1 [Navitoclax] (partner 0.5 µM)
Method in brief: as §1

Masitinib + Trametinib = compound: Cc1ccc(NC(=O)c2ccc(CN3CCN(C)CC3)cc2)cc1Nc1nc(-c2cccnc2)cs1 [Masitinib] + CC(=O)Nc1cccc(-n2c(=O)n(C3CC3)c(=O)c3c(Nc4ccc(I)cc4F)n(C)c(=O)c(C)c32)c1 [Trametinib] (partner 0.02 µM)
Method in brief: as §1

Cell Line	relative viability ([1]; first compound 0.08 µM)	relative viability ([1]; first compound 0.253 µM)	relative viability ([1]; first compound 0.8 µM)	relative viability ([1]; first compound 2.53 µM)	relative viability ([1]; first compound 8 µM)	relative viability ([2]; first compound 0.08 µM)	relative viability ([2]; first compound 0.253 µM)	relative viability ([2]; first compound 0.8 µM)	relative viability ([2]; first compound 2.53 µM)	relative viability ([2]; first compound 8 µM)	relative viability (Masitinib + Navitoclax; first compound 0.01 µM)	relative viability (Masitinib + Navitoclax; first compound 0.03162 µM)	relative viability (Masitinib + Navitoclax; first compound 0.1 µM)	relative viability (Masitinib + Navitoclax; first compound 0.3162 µM)	relative viability (Masitinib + Navitoclax; first compound 1 µM)	relative viability (Masitinib + Trametinib; first compound 0.01 µM)	relative viability (Masitinib + Trametinib; first compound 0.03162 µM)	relative viability (Masitinib + Trametinib; first compound 0.1 µM)	relative viability (Masitinib + Trametinib; first compound 0.3162 µM)	relative viability (Masitinib + Trametinib; first compound 1 µM)
NCI-H2087	0.996	1.12	0.994	1.05	0.688	0.615	0.725	0.762	0.574	0.708	0.966	1.02	1.1	1.08	0.963	0.176	0.213	0.214	0.153	0.178
NCI-H2126	0.858	1.11	1.08	0.982	0.862	0.579	0.717	0.711	0.735	0.74	0.761	0.807	0.842	0.823	0.798	0.523	0.54	0.562	0.507	0.534
NCI-H2170	0.975	1.05	0.986	0.976	0.893	0.695	0.901	0.731	0.697	0.599	0.683	0.486	0.546	0.577	0.559	1.08	0.76	1.01	0.984	0.98
NCI-H2228	0.705	0.955	0.766	0.893	0.892	0.343	0.514	0.42	0.412	0.824	0.899	1.05	1.08	0.705	0.817	0.385	0.381	0.405	0.482	0.529
NCI-H2347	0.926	0.721	0.855	0.994	0.842	0.512	0.671	0.411	0.657	0.501	0.709	0.764	0.79	0.861	0.764	0.26	0.262	0.291	0.293	0.288
NCI-H2405	0.914	0.942	0.786	0.99	1	0.874	0.613	0.892	–	0.839	0.874	1.01	1.07	0.731	0.825	0.651	0.605	0.705	0.576	0.594
NCI-H3122	0.885	0.967	0.984	0.971	1.01	0.912	0.709	1.05	1.03	0.961	1.03	1.04	1.04	1.09	1.04	0.26	0.243	0.24	0.267	0.168
PC-3 [JPC-3]	0.975	0.928	0.911	0.918	0.824	0.579	–	0.811	0.575	0.803	0.768	0.682	0.806	0.659	0.787	0.723	0.651	0.733	0.576	0.616
PC-14	0.875	0.891	0.889	0.959	0.928	0.84	0.674	0.715	0.867	0.666	1.05	0.89	0.991	1.04	0.937	0.774	0.634	0.909	0.729	0.821
RERF-LC-KJ	0.847	0.874	0.718	0.78	0.762	0.662	0.541	0.526	0.373	0.279	0.986	–	1.07	0.873	0.541	0.769	0.836	0.834	0.809	0.763
SK-LU-1	0.767	0.886	–	0.781	0.76	0.76	0.796	0.53	0.799	0.727	0.927	1.05	1.04	1	0.869	0.513	0.406	0.534	0.555	0.464
SK-MES-1	0.687	0.78	0.751	1.04	0.8	0.851	0.829	0.819	0.86	0.822	1.29	1.23	1.24	1.17	0.99	0.519	0.528	0.561	0.485	0.514
SW 1573	0.818	0.872	0.97	0.986	0.869	0.739	0.748	0.815	0.727	0.687	0.975	1.05	1.09	1.19	0.972	0.666	0.603	0.551	0.542	0.581
